Reference: patent US7820623B2 (priority 2006, dated 2010)
Read-outs that look alike come from different tables or passages of the source. Bridge positions count the residues as written; N and C are the ends. Square brackets hold non-standard residues; d marks the D form. Peptide text beside a SMILES is read from it. 1Nal = N[C@@H](Cc1cccc2ccccc12)C(=O)O

Assays:
[1] = test system: thapsigargin-induced IFN-g production in human whole blood; format: cell-based
[2] = test system: thapsigargin-induced IL-2 production in human whole blood
[3] = read-out: Analogue Activity (IC50) WB/IFNg
[4] = read-out: Analogue Activity (IC50) WB/IL-2

Compound	IC50 [1, 3]	IC50 [2, 4]	IC50 ([1]; read-out: Average IC50 IFNg)	IC50 ([2]; read-out: Average IC50 IL-2)	also measured
CC[C@H](C)[C@@H]1NC(=O)[C@H](CCCCN)NC(=O)[C@@H](NC(=O)[C@H](CCCCN)NC(=O)[C@@H](NC(=O)[C@H](CC(N)=O)NC(=O)[C@@H](NC(=O)[C@@H](NC(=O)[C@@H](NC(=O)CN)C(C)C)[C@@H](C)CC)[C@@H](C)CC)C(C)C)CSSC[C@@H]2NC(=O)[C@H](CCCCN)NC(=O)CNC(=O)[C@H](Cc3ccccc3)NC(=O)[C@H](CCCNC(=N)N)NC(=O)[C@H](CCSC)NC(=O)CNC(=O)[C@H](C)NC(=O)[C@H](CCCCN)NC(=O)[C@H](CCCCN)NC(=O)[C@@H]3CSSC[C@@H](C(=O)N[C@H](C(=O)N4CCC[C@H]4C(=O)N[C@@H](CCCCN)C(=O)O)[C@@H](C)O)NC(=O)[C@H](Cc4c[nH]cn4)NC(=O)[C@H](CSSC[C@H](NC(=O)[C@H](CCC(=O)O)NC(=O)[C@H](CCCNC(=N)N)NC(=O)[C@H](CO)NC1=O)C(=O)N[C@@H](CC(C)C)C(=O)N[C@@H](CCC(=O)O)C(=O)N1CCC[C@H]1C(=O)N3)NC(=O)[C@H](CCCCN)NC(=O)CNC(=O)[C@H](CC(N)=O)NC(=O)[C@H](CCSC)NC2=O [Q13E] (H-GVIINVKCKISRECLEPCKKAGMRFGKCMNGKCHCTPK-OH; disulfide 8-28, 14-33, 18-35)	799 pM	1060 pM	–	–	–
CC[C@H](C)[C@@H]1NC(=O)[C@H](CCCCN)NC(=O)[C@@H](NC(=O)[C@H](CCCCN)NC(=O)[C@@H](NC(=O)[C@H](CC(N)=O)NC(=O)[C@@H](NC(=O)[C@@H](NC(=O)[C@@H](NC(=O)CN)C(C)C)[C@@H](C)CC)[C@@H](C)CC)C(C)C)CSSC[C@@H]2NC(=O)[C@H](CCCCN)NC(=O)CNC(=O)[C@H](Cc3ccccc3)NC(=O)[C@H](CCCNC(=N)N)NC(=O)[C@H](CCSC)NC(=O)[C@H](CCC(=O)O)NC(=O)[C@H](C)NC(=O)[C@H](CCCCN)NC(=O)[C@H](CCCCN)NC(=O)[C@@H]3CSSC[C@@H](C(=O)N[C@H](C(=O)N4CCC[C@H]4C(=O)N[C@@H](CCCCN)C(=O)O)[C@@H](C)O)NC(=O)[C@H](Cc4c[nH]cn4)NC(=O)[C@H](CSSC[C@H](NC(=O)[C@H](CCC(N)=O)NC(=O)[C@H](CCCNC(=N)N)NC(=O)[C@H](CO)NC1=O)C(=O)N[C@@H](CC(C)C)C(=O)N[C@@H](CCC(=O)O)C(=O)N1CCC[C@H]1C(=O)N3)NC(=O)[C@H](CCCCN)NC(=O)CNC(=O)[C@H](CC(N)=O)NC(=O)[C@H](CCSC)NC2=O [G22E] (H-GVIINVKCKISRQCLEPCKKAEMRFGKCMNGKCHCTPK-OH; disulfide 8-28, 14-33, 18-35)	164 pM	109 pM	–	–	–
GVIINVKCKISRQCAEPCKKAGMRFGKCMNGKCHCTPK [Ala-15 (SEQ ID No: 1412)]	–	–	108 pM	108 pM	–
CC[C@H](C)[C@@H]1NC(=O)[C@H](CCCCN)NC(=O)[C@@H](NC(=O)[C@H](CCCCN)NC(=O)[C@@H](NC(=O)[C@H](CC(N)=O)NC(=O)[C@@H](NC(=O)[C@@H](NC(=O)[C@@H](NC(=O)CN)C(C)C)[C@@H](C)CC)[C@@H](C)CC)C(C)C)CSSC[C@@H]2NC(=O)[C@H](CCCCN)NC(=O)CNC(=O)[C@H](Cc3ccccc3)NC(=O)[C@H](CCCNC(=N)N)NC(=O)[C@H](CCSC)NC(=O)CNC(=O)[C@H](C)NC(=O)[C@H](CCCCN)NC(=O)[C@H](CCCCN)NC(=O)[C@@H]3CSSC[C@@H](C(=O)N[C@H](C(=O)N4CCC[C@H]4C(=O)N[C@@H](CCCCN)C(=O)O)[C@@H](C)O)NC(=O)[C@H](Cc4c[nH]cn4)NC(=O)[C@H](CSSC[C@H](NC(=O)[C@H](CCC(N)=O)NC(=O)[C@H](CCCNC(=N)N)NC(=O)[C@H](CO)NC1=O)C(=O)N[C@@H](CC(C)C)C(=O)N[C@@H](CCC(=O)O)C(=O)N1CCC[C@H]1C(=O)N3)NC(=O)[C@H](CCC(=O)O)NC(=O)CNC(=O)[C@H](CC(N)=O)NC(=O)[C@H](CCSC)NC2=O [K32E] (H-GVIINVKCKISRQCLEPCKKAGMRFGKCMNGECHCTPK-OH; disulfide 8-28, 14-33, 18-35)	63 pM	62 pM	–	–	–
GVAINVKCKISRQCLEPCKKAGMRFGKCMNGKCHCTPK [Ala-3 (SEQ ID No: 1402)]	–	–	99.2 pM	88.3 pM	–
CC[C@H](C)[C@@H]1NC(=O)[C@H](CCCCN)NC(=O)[C@@H](NC(=O)[C@H](CCCCN)NC(=O)[C@@H](NC(=O)[C@H](CC(N)=O)NC(=O)[C@@H](NC(=O)[C@@H](NC(=O)[C@@H](NC(=O)CN)C(C)C)[C@@H](C)CC)[C@@H](C)CC)C(C)C)CSSC[C@@H]2NC(=O)[C@H](CCCCN)NC(=O)CNC(=O)[C@H](Cc3ccccc3)NC(=O)[C@H](CCCNC(=N)N)NC(=O)[C@H](CCSC)NC(=O)CNC(=O)[C@H](C)NC(=O)[C@H](CCCCN)NC(=O)[C@H](CCCCN)NC(=O)[C@@H]3CSSC[C@@H](C(=O)N[C@H](C(=O)N4CCC[C@H]4C(=O)N[C@@H](CCCCN)C(=O)O)[C@@H](C)O)NC(=O)[C@H](Cc4c[nH]cn4)NC(=O)[C@H](CSSC[C@H](NC(=O)[C@H](CCC(N)=O)NC(=O)[C@H](CCCNC(=N)N)NC(=O)[C@H](CO)NC1=O)C(=O)N[C@@H](Cc1cccc4ccccc14)C(=O)N[C@@H](CCC(=O)O)C(=O)N1CCC[C@H]1C(=O)N3)NC(=O)[C@H](CCCCN)NC(=O)CNC(=O)[C@H](CC(N)=O)NC(=O)[C@H](CCSC)NC2=O [L15Nal] (H-GVIINVKCKISRQC[1Nal]EPCKKAGMRFGKCMNGKCHCTPK-OH; disulfide 8-28, 14-33, 18-35)	370 pM	358 pM	–	–	–
CC[C@H](C)[C@@H]1NC(=O)[C@H](CCCCN)NC(=O)[C@@H](NC(=O)[C@H](CCC(=O)O)NC(=O)[C@@H](NC(=O)[C@H](CC(N)=O)NC(=O)[C@@H](NC(=O)[C@@H](NC(=O)[C@@H](NC(=O)CN)C(C)C)[C@@H](C)CC)[C@@H](C)CC)C(C)C)CSSC[C@@H]2NC(=O)[C@H](CCCCN)NC(=O)CNC(=O)[C@H](Cc3ccccc3)NC(=O)[C@H](CCCNC(=N)N)NC(=O)[C@H](CCSC)NC(=O)CNC(=O)[C@H](C)NC(=O)[C@H](CCCCN)NC(=O)[C@H](CCCCN)NC(=O)[C@@H]3CSSC[C@@H](C(=O)N[C@H](C(=O)N4CCC[C@H]4C(=O)N[C@@H](CCCCN)C(=O)O)[C@@H](C)O)NC(=O)[C@H](Cc4c[nH]cn4)NC(=O)[C@H](CSSC[C@H](NC(=O)[C@H](CCC(N)=O)NC(=O)[C@H](CCCNC(=N)N)NC(=O)[C@H](CO)NC1=O)C(=O)N[C@@H](CC(C)C)C(=O)N[C@@H](CCC(=O)O)C(=O)N1CCC[C@H]1C(=O)N3)NC(=O)[C@H](CCCCN)NC(=O)CNC(=O)[C@H](CC(N)=O)NC(=O)[C@H](CCSC)NC2=O [K7E] (H-GVIINVECKISRQCLEPCKKAGMRFGKCMNGKCHCTPK-OH; disulfide 8-28, 14-33, 18-35)	68 pM	58 pM	–	–	–
E16K, K20D, des36-38 (GVIINVKCKISRQCLKPCKDAGMRFGKCMNGKCHC)	–	–	–	–	IC50 ([1]; read-out: WB/IFNg (IC50)): 6990 pM; IC50 ([2]; read-out: WB/IL-2 (IC50)): 3940 pM
GVIINVKCAISRQCLEPCKKAGMRFGKCMNGKCHCTPK [Ala-9 (SEQ ID No: 1407)]	–	–	71.1 pM	79.6 pM	–
CC[C@H](C)[C@@H]1NC(=O)[C@H](CCCCN)NC(=O)[C@@H](NC(=O)[C@H](CCCCN)NC(=O)[C@H](CCCNC(=N)N)NC(=O)[C@H](CC(N)=O)NC(=O)[C@@H](NC(=O)[C@@H](NC(=O)[C@@H](NC(=O)CN)C(C)C)[C@@H](C)CC)[C@@H](C)CC)CSSC[C@@H]2NC(=O)[C@H](CCCCN)NC(=O)CNC(=O)[C@H](Cc3ccccc3)NC(=O)[C@H](CCCNC(=N)N)NC(=O)[C@H](CCSC)NC(=O)CNC(=O)[C@H](C)NC(=O)[C@H](CCCCN)NC(=O)[C@H](CCCCN)NC(=O)[C@@H]3CSSC[C@@H](C(=O)N[C@H](C(=O)N4CCC[C@H]4C(=O)N[C@@H](CCCCN)C(=O)O)[C@@H](C)O)NC(=O)[C@H](Cc4c[nH]cn4)NC(=O)[C@H](CSSC[C@H](NC(=O)[C@H](CCC(N)=O)NC(=O)[C@H](CCCNC(=N)N)NC(=O)[C@H](CO)NC1=O)C(=O)N[C@@H](CC(C)C)C(=O)N[C@@H](CCC(=O)O)C(=O)N1CCC[C@H]1C(=O)N3)NC(=O)[C@H](CCCCN)NC(=O)CNC(=O)[C@H](CC(N)=O)NC(=O)[C@H](CCSC)NC2=O [V6R] (H-GVIINRKCKISRQCLEPCKKAGMRFGKCMNGKCHCTPK-OH; disulfide 8-28, 14-33, 18-35)	115 pM	84 pM	–	–	–
CC[C@H](C)[C@@H]1NC(=O)[C@H](CCCCN)NC(=O)[C@@H](NC(=O)[C@H](CCCCN)NC(=O)[C@@H](NC(=O)[C@H](CC(N)=O)NC(=O)[C@@H](NC(=O)[C@@H](NC(=O)[C@@H](NC(=O)CN)C(C)C)[C@@H](C)CC)[C@@H](C)CC)C(C)C)CSSC[C@@H]2NC(=O)[C@H](CCCCN)NC(=O)CNC(=O)[C@H](CCCNC(=N)N)NC(=O)[C@H](CCCNC(=N)N)NC(=O)[C@H](CCSC)NC(=O)CNC(=O)[C@H](C)NC(=O)[C@H](CCCCN)NC(=O)[C@H](CCCCN)NC(=O)[C@@H]3CSSC[C@@H](C(=O)N[C@H](C(=O)N4CCC[C@H]4C(=O)N[C@@H](CCCCN)C(=O)O)[C@@H](C)O)NC(=O)[C@H](Cc4c[nH]cn4)NC(=O)[C@H](CSSC[C@H](NC(=O)[C@H](CCC(N)=O)NC(=O)[C@H](CCCNC(=N)N)NC(=O)[C@H](CO)NC1=O)C(=O)N[C@@H](CC(C)C)C(=O)N[C@@H](CCC(=O)O)C(=O)N1CCC[C@H]1C(=O)N3)NC(=O)[C@H](CCCCN)NC(=O)CNC(=O)[C@H](CC(N)=O)NC(=O)[C@H](CCSC)NC2=O [F25R] (H-GVIINVKCKISRQCLEPCKKAGMRRGKCMNGKCHCTPK-OH; disulfide 8-28, 14-33, 18-35)	31000 pM	25000 pM	–	–	–
E16K, K20D (GVIINVKCKISRQCLKPCKDAGMRFGKCMNGKCHCTPK; Definition of Artificial Sequence: Synthetic peptide)	–	–	–	–	IC50 ([1]; read-out: WB/IFNg (IC50)): 1320 pM; IC50 ([2]; read-out: WB/IL-2 (IC50)): 1580 pM
GVIINVKCKISPQCLKPCKDAGIRFGKCINGKCACTPK	–	–	513 pM	514 pM	–
